Experimental data reported in patent publication US20110118120A1, “SYNERGISTIC HERBICIDAL COMPOSITION CONTAINING AMINOPYRALID AND SULFONYLUREAS” (Dow AgroSciences LLC, priority 2009, published 2011).

Tested on: milk thistle (Sonchus oleraceus; SONOL)
Experiment: Postemergence herbicidal activity of mixtures under field conditions (percent visual weed control)
Format: in vivo
Settings: postemergence foliar, spring wheat
Procedure: These trials were conducted under field conditions in Northern New South Wales, Australia. Trials sites were located in commercially grown fields of spring wheat (Triticum aestivum). The wheat crop was grown using normal cultural practices for fertilization, seeding, and maintenance to ensure good growth of the crop and the weeds. The trial was conducted using normal research methodology. Trial plots were marked out measuring 3 meters (m) by 10 m. All treatments were applied using a randomized complete block trial design with 4 replications per treatment. The trial sites had naturally occurring populations of weeds present. The weed spectrum included, but was not limited to, milk thistle (Sonchus oleraceus; SONOL); wire-weed (Polygonum aviculare; POLAV); turnip weed (Rapistrum rugosum; RASRU); Medick, Medicago spp. (MEDSS); Patersons curse (Echium plantagineum; EPHIL). The weeds were treated with postemergence foliar applications when they were between cotyledons and 8 true leaves.
Treatments consisted of tank mixes of soluble granules of aminopyralid potassium salt and commercially available formulations of metsulfuron-methyl (Ally™ herbicide, water dispersible granules) and MCPA iso-octyl (emulsifiable concentrate). The ‘carrier’ application volume was using 100 liters per hectare (L/ha) of water. […]

| Compound | % Control SONOL Ob (percent control observed) (Aminopyralid 3.75 g ae/ha alone) | % Control SONOL Ob (percent control observed) (Metsulfuron 3 g ai/ha alone) |
| --- | --- | --- |
| Nc1cc(Cl)nc(C(=O)O)c1Cl [Aminopyralid, aminopyralid] | 18% |  |
| COC(=O)c1ccccc1S(=O)(=O)NC(=O)Nc1nc(C)nc(OC)n1 [Metsulfuron, metsulfuron-methyl] |  | 29% |
